The values below are quoted from earlier work in patent publication US9687002B2, “Botanical antimicrobial microemulsions (BAMM)” (Indusco, Ltd., priority 2015, dated 2017).

The data set has as its system various fungi that commonly infect toenails.

Each structure is given as a SMILES string.

As to `Cc1ccc(C(C)C)c(O)c1` [Thymol], the effectiveness against fungi entry is recorded as “effective”.
